# Tests used:
# p110-β = p110-β (Homo sapiens, UniProt P42338); design: method as in PMID 20959606; conditions: Class I PI3Ks; cited from earlier work
# PKC2-α = PKC2-α (Homo sapiens, UniProt O00443); design: method as in PMID 20959606; conditions: Class II PI3Ks; cited from earlier work
# PDGFR = tested on: PDGFR; design: method as in PMID 20959606; conditions: Other Clinically-relevant Kinases; cited from earlier work
# ERBB4 = ERBB4 (Homo sapiens, UniProt Q15303); design: method as in PMID 20959606; conditions: Other Clinically-relevant Kinases; cited from earlier work
# p110-α = p110-α (Homo sapiens, UniProt P42336); design: method as in PMID 20959606; conditions: Class I PI3Ks; cited from earlier work
# PKCγ = tested on: PKCγ; design: method as in PMID 20959606; conditions: cited from earlier work
# ERBB2 = ERBB2 (Homo sapiens, UniProt P04626); design: method as in PMID 20959606; conditions: Other Clinically-relevant Kinases; cited from earlier work
# p110-δ = p110-δ (Homo sapiens, UniProt O00329); design: method as in PMID 20959606; key to the marks not given beside the values; conditions: Class I PI3Ks; cited from earlier work
# CLL cells = assay: XTT viability, CLL cells (DT97 vs idelalisib); format: cell-based; conditions: 1 uM, 72 h, XTT assay
# p110-γ = p110-γ (Homo sapiens, UniProt P48736); design: method as in PMID 20959606; key to the marks not given beside the values; conditions: Class I PI3Ks; cited from earlier work
# p110-γ, sequence (P48736 whole entry): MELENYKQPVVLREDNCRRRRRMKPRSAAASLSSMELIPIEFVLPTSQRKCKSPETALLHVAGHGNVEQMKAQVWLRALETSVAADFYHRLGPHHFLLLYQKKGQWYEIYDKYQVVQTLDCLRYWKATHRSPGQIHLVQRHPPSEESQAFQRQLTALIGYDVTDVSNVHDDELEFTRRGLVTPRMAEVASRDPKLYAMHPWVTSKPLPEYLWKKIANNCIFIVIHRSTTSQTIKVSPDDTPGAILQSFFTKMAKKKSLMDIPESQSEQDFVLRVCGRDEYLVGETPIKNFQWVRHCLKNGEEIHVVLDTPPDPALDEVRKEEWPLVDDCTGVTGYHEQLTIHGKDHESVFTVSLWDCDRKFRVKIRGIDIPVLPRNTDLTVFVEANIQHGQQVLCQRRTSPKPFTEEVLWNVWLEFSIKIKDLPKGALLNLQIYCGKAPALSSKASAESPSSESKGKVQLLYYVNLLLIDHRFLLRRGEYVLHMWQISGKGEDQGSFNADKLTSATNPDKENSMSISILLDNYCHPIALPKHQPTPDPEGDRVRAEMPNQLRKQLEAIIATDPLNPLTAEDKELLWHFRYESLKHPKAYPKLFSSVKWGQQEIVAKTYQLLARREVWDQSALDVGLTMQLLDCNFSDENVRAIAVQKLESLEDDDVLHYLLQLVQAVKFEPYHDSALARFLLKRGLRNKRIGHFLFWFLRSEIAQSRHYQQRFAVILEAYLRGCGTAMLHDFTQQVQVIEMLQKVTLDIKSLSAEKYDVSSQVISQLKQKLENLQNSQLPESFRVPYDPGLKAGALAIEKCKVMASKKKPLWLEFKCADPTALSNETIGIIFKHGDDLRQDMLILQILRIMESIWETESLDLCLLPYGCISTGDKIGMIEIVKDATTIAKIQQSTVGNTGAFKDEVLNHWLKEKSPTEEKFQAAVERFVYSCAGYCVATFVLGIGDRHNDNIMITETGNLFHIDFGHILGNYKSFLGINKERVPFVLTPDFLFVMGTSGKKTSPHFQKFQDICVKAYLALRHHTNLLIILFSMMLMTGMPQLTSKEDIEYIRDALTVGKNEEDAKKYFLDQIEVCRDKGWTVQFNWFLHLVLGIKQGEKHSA
# MM.1S myeloma cells = assay: Mouse xenograft model of myeloma; format: in vivo, mice; conditions: subcutaneous myeloma xenograft; intravenous; bortezomib 0.5 mg/kg, DT97 10 mg/kg
# Description: Five week old nude mice flanks are injected subcutaneously with MM.1S myeloma cells. Tumors formed within two weeks and mice were then treated intravenously with vehicle, bortezomib, DT97 or both bortezomib and DT97.
# Subcutaneous tumors were generated after injection of myeloma cells. […] Vehicle or bortezomib was administered on days 1, 4, 8 and 11. Mice were euthanized when tumors reached 2 cm^3, became ulcerated or elicited neurologic or musculoskeletal complications that limited mobility and feeding. Survival and tumor growth were evaluated from the first day of treatment. Shown is the average of replicate measurements. […] Kaplan-Meier survival curves comparison of NOD. SCID mice after subcutaneous injection of parental myeloma cells treated with vehicle, DT97, bortezomib or both.
# Mice received intravenous injection of either vehicle (PBS in 10% DMSO); bortezomib (0.5 mg/kg), DT97 (10 mg/kg) or both bortezomib and DT97. Tumor volume (TV) measurements were made using a vernier caliper and calculated using the formula: TV = 0.5 (a × b^2) where a is the long diameter and b the short diameter. Mice were euthanized when tumors reached 2 cm^3, became ulcerated or elicited neurologic or musculoskeletal complications that limited mobility and feeding.
# In vivo statistical tests were performed using the 2-tailed Student t test.
# PKC2-α, sequence (O00443 whole entry): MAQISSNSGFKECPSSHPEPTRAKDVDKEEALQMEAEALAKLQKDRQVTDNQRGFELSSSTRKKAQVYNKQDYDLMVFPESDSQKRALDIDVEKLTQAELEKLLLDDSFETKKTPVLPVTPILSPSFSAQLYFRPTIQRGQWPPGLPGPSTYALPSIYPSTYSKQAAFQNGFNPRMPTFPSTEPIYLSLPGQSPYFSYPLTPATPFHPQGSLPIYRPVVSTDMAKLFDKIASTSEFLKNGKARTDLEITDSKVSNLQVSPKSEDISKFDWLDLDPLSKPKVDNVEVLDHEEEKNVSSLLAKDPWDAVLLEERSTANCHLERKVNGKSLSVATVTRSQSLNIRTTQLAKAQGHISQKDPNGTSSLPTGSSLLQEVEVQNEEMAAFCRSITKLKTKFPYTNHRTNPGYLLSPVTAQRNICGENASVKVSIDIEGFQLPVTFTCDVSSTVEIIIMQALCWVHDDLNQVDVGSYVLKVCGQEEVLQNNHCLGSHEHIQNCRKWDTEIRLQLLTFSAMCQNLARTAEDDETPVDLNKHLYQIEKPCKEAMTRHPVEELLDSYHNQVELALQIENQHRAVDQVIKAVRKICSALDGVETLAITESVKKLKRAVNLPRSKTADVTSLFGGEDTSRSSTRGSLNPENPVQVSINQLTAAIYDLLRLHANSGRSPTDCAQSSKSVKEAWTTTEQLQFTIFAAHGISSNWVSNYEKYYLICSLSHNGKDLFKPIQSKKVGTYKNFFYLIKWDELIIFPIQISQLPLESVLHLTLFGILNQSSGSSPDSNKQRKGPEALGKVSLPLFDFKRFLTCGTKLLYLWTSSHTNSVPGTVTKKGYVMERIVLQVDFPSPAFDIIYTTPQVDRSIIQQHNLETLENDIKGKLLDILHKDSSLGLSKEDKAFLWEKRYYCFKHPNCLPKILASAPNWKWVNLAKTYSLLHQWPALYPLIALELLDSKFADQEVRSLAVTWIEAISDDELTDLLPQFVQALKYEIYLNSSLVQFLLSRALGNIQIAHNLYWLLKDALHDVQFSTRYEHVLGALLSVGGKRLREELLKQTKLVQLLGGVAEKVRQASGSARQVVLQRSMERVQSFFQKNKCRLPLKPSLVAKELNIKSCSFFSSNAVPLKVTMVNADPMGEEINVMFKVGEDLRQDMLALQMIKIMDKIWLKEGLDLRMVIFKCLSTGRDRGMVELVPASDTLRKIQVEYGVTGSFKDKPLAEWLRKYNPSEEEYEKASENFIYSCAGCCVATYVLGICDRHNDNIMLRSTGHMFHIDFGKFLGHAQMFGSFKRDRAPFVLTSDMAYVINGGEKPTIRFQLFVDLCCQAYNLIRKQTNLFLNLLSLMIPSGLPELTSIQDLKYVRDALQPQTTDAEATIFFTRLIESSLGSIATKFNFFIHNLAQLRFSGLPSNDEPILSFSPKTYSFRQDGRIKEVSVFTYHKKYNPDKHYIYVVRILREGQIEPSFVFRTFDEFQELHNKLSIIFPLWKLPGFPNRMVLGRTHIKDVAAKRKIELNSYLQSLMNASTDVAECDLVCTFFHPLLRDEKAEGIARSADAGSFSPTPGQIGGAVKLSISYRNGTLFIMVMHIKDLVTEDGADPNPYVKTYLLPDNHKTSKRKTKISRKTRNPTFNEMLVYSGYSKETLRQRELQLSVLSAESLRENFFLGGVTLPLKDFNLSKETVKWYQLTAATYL
# p110-β, sequence (P42338 whole entry): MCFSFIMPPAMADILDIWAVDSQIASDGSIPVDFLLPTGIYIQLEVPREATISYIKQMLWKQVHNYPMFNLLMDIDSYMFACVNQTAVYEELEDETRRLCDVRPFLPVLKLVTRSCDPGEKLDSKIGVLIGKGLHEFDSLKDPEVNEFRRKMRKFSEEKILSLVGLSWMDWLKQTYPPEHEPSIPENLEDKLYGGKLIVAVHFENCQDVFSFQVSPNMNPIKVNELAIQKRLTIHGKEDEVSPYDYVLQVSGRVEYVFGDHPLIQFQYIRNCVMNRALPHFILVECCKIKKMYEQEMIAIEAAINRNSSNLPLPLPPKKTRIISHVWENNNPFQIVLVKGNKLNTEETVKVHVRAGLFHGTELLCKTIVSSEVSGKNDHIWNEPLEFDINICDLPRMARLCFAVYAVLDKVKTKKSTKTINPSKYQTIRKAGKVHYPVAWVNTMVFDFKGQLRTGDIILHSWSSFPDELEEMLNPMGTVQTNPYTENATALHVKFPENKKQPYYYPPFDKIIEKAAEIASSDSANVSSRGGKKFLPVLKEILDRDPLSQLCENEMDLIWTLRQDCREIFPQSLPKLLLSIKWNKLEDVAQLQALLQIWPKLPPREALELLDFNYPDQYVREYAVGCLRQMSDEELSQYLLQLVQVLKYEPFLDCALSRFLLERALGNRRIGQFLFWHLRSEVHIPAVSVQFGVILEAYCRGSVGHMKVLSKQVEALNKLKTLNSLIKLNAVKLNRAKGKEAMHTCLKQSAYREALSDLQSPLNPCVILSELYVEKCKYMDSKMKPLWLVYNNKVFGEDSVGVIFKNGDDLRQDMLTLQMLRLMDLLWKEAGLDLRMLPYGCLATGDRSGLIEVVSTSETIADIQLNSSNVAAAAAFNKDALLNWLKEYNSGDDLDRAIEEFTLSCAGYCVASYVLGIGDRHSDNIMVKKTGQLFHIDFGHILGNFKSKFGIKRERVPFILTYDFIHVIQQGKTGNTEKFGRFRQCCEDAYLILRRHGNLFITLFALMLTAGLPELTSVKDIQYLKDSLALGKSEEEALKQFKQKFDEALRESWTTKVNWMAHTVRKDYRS
# p110-β, sequence (P27986 whole entry partner): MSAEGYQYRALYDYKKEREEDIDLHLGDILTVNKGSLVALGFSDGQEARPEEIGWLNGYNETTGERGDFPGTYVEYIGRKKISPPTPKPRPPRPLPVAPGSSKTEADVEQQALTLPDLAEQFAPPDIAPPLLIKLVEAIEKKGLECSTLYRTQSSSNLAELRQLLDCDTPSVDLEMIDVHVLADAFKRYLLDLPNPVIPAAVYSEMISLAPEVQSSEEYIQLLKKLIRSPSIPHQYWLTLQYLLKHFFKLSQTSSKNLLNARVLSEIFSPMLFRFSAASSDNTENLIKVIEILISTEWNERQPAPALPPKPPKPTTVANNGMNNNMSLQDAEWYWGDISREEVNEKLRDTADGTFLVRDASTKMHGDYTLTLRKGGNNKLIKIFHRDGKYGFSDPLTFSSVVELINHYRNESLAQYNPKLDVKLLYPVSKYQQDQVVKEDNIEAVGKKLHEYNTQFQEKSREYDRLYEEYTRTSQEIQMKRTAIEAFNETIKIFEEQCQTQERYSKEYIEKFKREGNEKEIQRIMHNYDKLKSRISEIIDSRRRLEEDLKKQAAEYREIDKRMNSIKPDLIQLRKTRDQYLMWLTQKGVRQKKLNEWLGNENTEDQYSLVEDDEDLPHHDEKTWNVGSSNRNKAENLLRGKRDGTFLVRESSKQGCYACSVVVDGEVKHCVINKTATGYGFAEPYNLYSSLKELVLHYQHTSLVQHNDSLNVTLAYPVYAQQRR
SMILES,Inhibitory profile (kinase inhibition) (p110-β),Inhibitory profile (kinase inhibition) (PKC2-α),Inhibitory profile (kinase inhibition) (PDGFR),Inhibitory profile (kinase inhibition) (ERBB4),Inhibitory profile (kinase inhibition) (p110-α),Inhibitory profile (kinase inhibition) (PKCγ),Inhibitory profile (kinase inhibition) (ERBB2),Inhibitory profile (kinase inhibition) (p110-δ),viability (CLL cells),Inhibitory profile (kinase inhibition) (p110-γ),overall survival (OS) (MM.1S myeloma cells) [days],tumor growth (MM.1S myeloma cells)
"CC[C@H](Nc1ncnc2[nH]cnc12)c1nc2cccc(F)c2c(=O)n1-c1ccccc1 [Idelalisib, idelalisib]",+,none,none,none,+,none,none,+++,more effectively reduced the viability,++,,
CC(C)C[C@H](NC(=O)[C@H](Cc1ccccc1)NC(=O)c1cnccn1)B(O)O [bortezomib],,,,,,,,,,,20,dramatically reduced tumor growth
